PMC11213934, “Allosteric modulators of M1 muscarinic receptors enhance acetylcholine efficacy and decrease locomotor activity and turning behaviors in zebrafish” (Scientific Reports, 2024)
Entries after “also recorded” stand apart in the source; their conditions may differ. Where two headings read alike, the source gives them in different places. Marks after values point to notes of the source that are not given here.

How the values were obtained:
[1] = target: T1, human M1 muscarinic receptors (Homo sapiens, UniProt P11229); experiment: [3H]-arachidonic acid release in CHO cells expressing M1 receptors, with and without ACh (single modulator concentration, four-parameter curves); assay type: cell-based; set-up: expressed in transfected cells; host or cells: CHO cells stably transfected with hM1, obtained from Mark Brann's laboratory (NIH); conditions: for 0.1 µM ACh: response with modulator present divided by response to ACh alone / 100 µM ACh: response with modulator present divided by response to ACh alone / No ACh: agonist effect of the allosteric ligand by itself, fraction of the maximal response that could be elicited by ACh: modulator 10 µM, CHO-hM1, mean ± s.e.m.; for No ACh: agonist effect of the allosteric ligand by itself, fraction of the maximal response that could be elicited by ACh: at least 4 determinations
T1 sequence (P11229 1-460): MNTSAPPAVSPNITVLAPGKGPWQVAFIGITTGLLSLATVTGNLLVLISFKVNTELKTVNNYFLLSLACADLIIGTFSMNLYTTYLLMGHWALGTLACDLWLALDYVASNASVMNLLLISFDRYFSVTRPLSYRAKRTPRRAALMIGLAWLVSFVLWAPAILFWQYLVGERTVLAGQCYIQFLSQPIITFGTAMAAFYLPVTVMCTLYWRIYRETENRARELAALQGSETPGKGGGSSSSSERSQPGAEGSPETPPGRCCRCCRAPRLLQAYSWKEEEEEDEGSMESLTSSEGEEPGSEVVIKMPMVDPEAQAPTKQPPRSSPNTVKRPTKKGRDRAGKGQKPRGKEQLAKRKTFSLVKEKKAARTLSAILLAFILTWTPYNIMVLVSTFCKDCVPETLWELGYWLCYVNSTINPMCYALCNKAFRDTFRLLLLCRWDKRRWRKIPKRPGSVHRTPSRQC
Experimental: CHO cells expressing human M1 muscarinic receptors were cultured at 37 °C in a 5% CO2 atmosphere in F12 medium supplemented with 5% fetal bovine serum, 100 units/ml penicillin, and 100 µg/ml streptomycin. These cells were obtained from Mark Brann’s laboratory when they were at NIH and have been in use by us and others for many years.
Measurement of [^3H]AA release was performed as described in Stahl and Ellis[24]. Stably transfected CHO-hM1 cells were seeded on 24-well plates (Greiner Bio-One GmbH, Frickenhausen, Germany) at a density of 5.0 × 10^4 cells/well in 0.5 ml of F-12 medium. Cells were incubated until they attached (approximately 3 h), followed by the addition of [^3H]AA to a final concentration of 0.05 μCi of [^3H]AA per well. The cells were then grown for 16 to 20 h before the assay was performed. [^3H]AA release was measured in Eagle’s basal medium with 20 mM HEPES and 2 mg/ml fatty acid-free bovine serum albumin (EM-BSA). Cells were rinsed twice with EM-BSA, followed by the addition of EM-BSA media containing experimental agents and incubated for 1 h at 37 °C. The assay was terminated by aspiration of the media, and the amount of [^3H]AA released was determined by liquid scintillation counting (Beckman-Coulter LS6500).
Where indicated (Fig. 2), cells were pretreated with POB to reduce the number of available receptors per cell. Stock POB was made up at 10 mM in ethanol and stored at −20C. Each well was pretreated with 0.5 ml of the appropriate concentration in PBS with 1 mM CaCl2 and 1 mM MgCl2 (PBS+ +) for 30 min at 37 °C, followed by 5 washes with PBS+ + . After pretreatment, the normal protocol follows as above.
Tabulated [^3H]AA release data are represented as a fraction of maximal release elicited by ACh or as the fraction of release elicited by the relevant concentration of ACh alone, as indicated. Dose-response curves were normalized to the maximal response of ACh without allosteric ligand. Where indicated, response curves were analyzed using the empirical four-parameter equation: Y=Top+Bottom-Top/1+X/C50^n where X is the concentration of the ligand used, Y is the amount of response, C50 is the concentration of the ligand that produces 50% of the maximal effect, Top and Bottom are the top and bottom plateaus of the curve, and n is related to the Hill slope for the curve. Where indicated, families of response curves were analyzed according to an allosteric operational model[50],[51]: Y=EM[τAA(KB+αβB)+τBBKA]/[τAA(KB+αβB)+τBBKA+AKB+KAKB+KAB+αAB] where EM is the maximal response; A is the concentration of ACh; B is the concentration of the allosteric ligand; τA and τB represent the operational efficacies of A and B, respectively; KA and KB are the equilibrium dissociation constants of A and B; and α and β represent the cooperativities between A and B in terms of binding and activation, respectively. Curve-fitting was carried out with GraphPad Prism, version 5.0 or 6.0 (San Diego CA).

[2] = tested on: wild-type (AB) zebrafish (Danio rerio); experiment: Maximum tolerated concentration (MTC) determination in larval zebrafish; assay type: in vivo; conditions: for MTC (maximum tolerated concentration): after 24 h exposure, 5 dpf larvae
Experimental: (§1) Larval zebrafish were produced in the University of Toledo zebrafish core facility and housed in an incubator maintained at 28 °C on a 14:10 h cycle. Fish were acclimated to the testing room conditions the evening prior to testing. All testing took place during the 14 h light cycle after the lights had been on for at least 2 h.
Determination of maximum tolerated concentration (adapted from Berghmans)[52] was completed by placing 5 days post fertilization (dpf) wild-type zebrafish larvae in a 24 well plate at 6 fish per well, and one compound concentration per well. […] Death was determined by the absence of heartbeat. Additional endpoints were used to assess toxicity at non-lethal concentrations such as startle capacity (poke stimulus), abnormalities in swimming behavior (loss of dorsoventral balance), and gross morphological deformities (bent body). […] The MTC determination was used to select three doses of each compound (low, medium, high dose) to be used in behavioral assays.

[3] = tested on: wild-type (AB) zebrafish (Danio rerio); experiment: animal or person; assay type: in vivo; conditions: for MEC: locomotor behaviors
Experimental: as §1
The movement of larval zebrafish was monitored with the Noldus behavior recording system (Noldus Information Technology, Leesburg VA) and quantified using EthoVision® XT 15 software (Noldus Information Technology, Leesburg VA). Five-dpf zebrafish larvae were exposed to a range of nonlethal concentrations of compounds in a 24-well plate with appropriate controls. The plate was immediately placed in the incubator for a 30-min exposure period. After 30 min, the plate was transferred to the Noldus system and swimming behavior was recorded in 100% light for 30 min to measure spontaneous swimming behavior. The light was switched off for 10 min (dark period) and then switched on for 10 min (light period), which was then repeated for two additional cycles. In total, the larvae were exposed to three cycles of alternating 10 min dark and light periods (100% darkness-to-100% light). Each drug challenge was conducted on three separate plates with n = 6 larvae/dose/plate.
Absolute turn angle (TA) and angular velocity provided measures of the extent of turning behavior, while the intra-individual variance of turn angle quantified how consistently (low variance) or inconsistently (high variance) fish turned. A lowered intra-individual variance of turning reflected repeatedly performing the same turning behavior, a stereotypy.
All data for exposure and the behavioral end points were analyzed by one-way ANOVA (factor: drug concentration) followed by a Dunnett’s multiple comparisons test for post hoc significance between drug concentration and control group. Statistically significant differences are noted as follows; *p < 0.05; **p < 0.01; ***p < 0.001.

[4] = tested on: wild-type (AB) zebrafish (Danio rerio); assay type: in vivo; conditions: compound at 10 µM relative to controls; mean ± s.e.m., N = 12
[5] = modulators at 10 µM (amiodarone 30 µM)
[6] = compound at 10 µM relative to controls, mean ± s.e.m., N = 12

Compound | 0.1 µM ACh: response with modulator present divided by response to ACh alone [1] | 100 µM ACh: response with modulator present divided by response to ACh alone [1] | No ACh: agonist effect of the allosteric ligand by itself, fraction of the maximal response that could be elicited by ACh [1] | MTC (maximum tolerated concentration) [2] | Effect on M1 receptor activity and ACh response, in words [1, 5] | MEC [3] | Angular velocity [4] | Therap. index [3] | Distance moved [3, 6] | Variance turn angle [3, 6] | further results
O=C1C(=O)N(Cc2ccc(Br)cc2)c2ccccc21 [VU0119498, reference compound] | 1.28 ± 0.12 | 1.03 ± 0.05 | 0.06 ± 0.01 |  |  |  |  |  |  |  | 
CC(COc1ccccc1)N(CCCl)Cc1ccccc1 (stereo not drawn) [POB, phenoxybenzamine, reference compound] |  |  |  |  |  |  |  |  |  |  | Reduction of receptor number ([1]; pretreatment of cells with 0.3 µM POB): 90%
CCCCc1oc2ccccc2c1C(=O)c1cc(I)c(OCC[N+](CC)(CC)CC)c(I)c1 [Compound 2, N-ethyl amiodarone, reference compound] | 0.13 ± 0.04 | 0.50 ± 0.03 | 0.04 ± 0.02 | 1 µM | NAM of mAChR potency and efficacy | > 1 µM |  |  |  |  | 
COc1c(F)cc(CN2C(=O)C(=O)c3ccccc32)cc1F [Compound 8g, 1-(3,5-difluoro-4-methoxybenzyl)indoline-2,3-dione] | 1.41 ± 0.13 | 0.95 ± 0.05 | 0.03 ± 0.01 | 30 µM |  | 1 µM | 144.5 ± 18.6 % | 30 | 65.7 ± 11.7*** % | 126.5 ± 10.4* % | 
COc1c(Cl)cc(CN2C(=O)C(=O)c3ccccc32)cc1Cl [Compound 8e, 1-(3,5-dichloro-4-methoxybenzyl)indoline-2,3-dione] | 2.29 ± 0.14 | 1.21 ± 0.07 | 0.13 ± 0.04 | 100 µM |  | 1 µM | 222.1 ± 25.0 % | 100 | 29.1 ± 5.3*** % | 158.8 ± 14.3*** % | 
COc1cccc(CN2C(=O)C(=O)c3ccccc32)c1 [Compound 8j, 1-(3-methoxybenzyl)indoline-2,3-dione] | 1.09 ± 0.31 | 0.96 ± 0.01 | 0.02 ± 0.02 |  |  |  |  |  |  |  | 
CCCCc1oc2ccccc2c1C(=O)c1cc(I)c(OCCN(CC)CC)c(I)c1 [Amiodarone, reference compound] |  |  |  | 10 µM |  | > 10 µM | 83.2 ± 12.0% |  | 85.7 ± 10.2% | 102.2 ± 10.4% | Concentration that produced death ([2]; 24 h exposure): 100 µM
COc1ccc(Cn2cc(C(=O)O)c(=O)c3ccccc32)cc1 [BQCA, reference compound] |  |  | 0.02 ± 0.00 |  |  |  |  |  |  | 119.6 ± 7.0* % | Effect on M1 receptor activity and ACh response, in words [1]: enhanced potency without appreciable effect on maximal response; Effect on locomotor activity and turning behaviors, in words ([3]; 30 min spontaneous swimming period): decreased overall locomotor activity; also recorded: increased angular velocity; response vs control in vivo at 10 µM ([3]; Danio rerio, read-out: Distance moved): 72 ± 10%; MEC ([3]; abbreviation not defined in the paper): 3 µM; Angular velocity [3, 6]: 141.8 ± 14.9* %
CCCCc1oc2ccccc2c1C(=O)c1cc(I)c(OCCNCC)c(I)c1.Cl [Compound 1, (2-butylbenzofuran-3-yl)(4-(2-(ethylamino)ethoxy)-3,5-diiodophenyl)methanone hydrochloride] | 1.01 ± 0.11 | 0.83 ± 0.09 | 0.18 ± 0.03 | 3 µM | suppressed the maximal ACh response | 3 µM |  | 1 |  |  | 
VU0238408 [reference compound] |  |  |  | 30 µM |  | 1 µM | 180.1 ± 20.3 % | 30 | 34.6 ± 4.0*** % | 146.6 ± 12.4*** % | 
CCCCc1oc2ccccc2c1C(=O)c1ccc(O)cc1 [Compound 4, reference compound] | 0.62 ± 0.07 | 0.81 ± 0.06 | 0.04 ± 0.01 | 0.3 µM | suppressed the maximal ACh response | > 0.3 µM |  |  |  |  | 
CCCCc1oc2ccccc2c1C(=O)c1cc(I)c(O)c(I)c1 [Compound 3, reference compound] | 0.63 ± 0.10 | 0.90 ± 0.07 | 0.04 ± 0.01 | 3 µM | suppressed the maximal ACh response | > 3 µM |  |  |  |  | 
